Patent US20060069132A1, “Azolecarboxamide herbicides” (priority 2004, published 2006)

What was measured:
rice = assay: Test B pre-/postemergence herbicide test; assay type: in vivo, Oryza sativa; conditions: preemergence
How it was run: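 Formulation: non-phytotoxic solvent mix with surfactant. Timing: preemergence on seed and postemergence on 2–18 cm plants, applied concurrently. Readout after 13–15 d greenhouse: visual 0–100 control rating against controls.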

bermudagrass = assay: Test C pre-/postemergence herbicide test; assay type: in vivo, Cynodon dactylon
How it was run: (§1)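 Pre- and postemergence application, solvent/surfactant formulation; post at 1- to 4-leaf stage (2–18 cm). Greenhouse 12–14 d. Visual rating vs controls, 0 = no effect, 100 = complete control.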

corn = assay: Test C pre-/postemergence herbicide test; assay type: in vivo, Zea mays; conditions: for Corn plant response rating: Preemergence, 500 g ai/ha
How it was run: as §1

woolly cupgrass = assay: Test C pre-/postemergence herbicide test; assay type: in vivo, Eriochloa villosa; conditions: for Cupgrass, Woolly plant response rating: Preemergence, 500 g ai/ha
How it was run: as §1

soybean = assay: Test C pre-/postemergence herbicide test; assay type: in vivo, Glycine max; conditions: for Soybean plant response rating: Preemergence, 500 g ai/ha
How it was run: as §1

[1] = system: common (oilseed) sunflower; assay: Test C pre-/postemergence herbicide test; assay type: in vivo, Helianthus annuus; conditions: for Plant response rating (0 = no effect, 100 = complete control), Sunflower / Plant response rating, Sunflower: preemergence; for Sunflower plant response rating: Preemergence, 500 g ai/ha, scale 0 to 100, 0 no effect, 100 complete control
How it was run: as §1

velvetleaf = assay: Test C pre-/postemergence herbicide test; assay type: in vivo, Abutilon theophrasti; conditions: for Velvetleaf plant response rating: Preemergence, 500 g ai/ha
How it was run: as §1

large crabgrass = assay: Test A pre-/postemergence herbicide test; assay type: in vivo, Digitaria sanguinalis
How it was run: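 Visual injury rating on a 0–100 scale (0 no effect, 100 complete control) versus untreated controls, about ten days after treatment in greenhouse. Pre: directed soil spray onto seeded sandy loam. Post: spray to runoff on plants 2–10 cm tall at one- to two-leaf stage.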

[2] = 125 g ai/ha, 0 to 100 scale, 0 is no effect, 100 is complete control
[3] = 125 g ai/ha, scale 0 (no effect) to 100 (complete control), visual, 12 to 14 days, preemergence
[4] = 250 g ai/ha, scale 0 to 100 (0 no effect, 100 complete control), visual, 12 to 14 days, preemergence
[5] = Preemergence, 500 g ai/ha, scale 0 to 100, 0 no effect, 100 complete control
[6] = scale 0 to 100, 0 no effect, 100 complete control
[7] = 125 g ai/ha, scale 0 (no effect) to 100 (complete control), visual, 12 to 14 days
[8] = 250 g ai/ha, scale 0 to 100 (0 no effect, 100 complete control), visual, 12 to 14 days
[9] = Postemergence, 500 g ai/ha, 0 to 100 scale, 0 no effect, 100 complete control
[10] = Postemergence, 2000 g ai/ha, 0 to 100 scale, 0 no effect, 100 complete control
[11] = Preemergence, 500 g ai/ha, visual rating, 0 to 100 scale (0 no effect, 100 complete control)
[12] = 31 g ai/ha, preemergence, scale 0 to 100
[13] = postemergence, 125 g ai/ha, scale 0 to 100
[14] = postemergence, 62 g ai/ha, scale 0 to 100
[15] = Postemergence, 250 g ai/ha, scale 0 to 100, 0 no effect, 100 complete control
[16] = Preemergence, 2000 g ai/ha, visual rating, 0 to 100 scale (0 no effect, 100 complete control)
[17] = 500 g ai/ha, visual rating 0-100, 0 no effect, 100 complete control
[18] = 62 g ai/ha, preemergence, scale 0 to 100, 0 no effect, 100 complete control
[19] = 62 g ai/ha, preemergence, scale 0 to 100
[20] = 250 g ai/ha, scale 0-100, preemergence

## CCCn1nc(C(C)(C)C)cc1C(=O)Nc1cccc(C(=O)NCC)c1 [Compound 57]
rice; [2]
  Plant response rating, Rice: 30
bermudagrass; 62 g ai/ha, preemergence
  Plant response rating (0 = no effect, 100 = complete control), Bermudagrass: 55
bermudagrass; [3]
  Plant response rating, Bermudagrass: 95
bermudagrass; [4]
  Plant response rating, Bermudagrass: 95
bermudagrass; [5]
  Bermudagrass plant response rating: 100
corn; 62 g ai/ha, preemergence
  Plant response rating (0 = no effect, 100 = complete control), Corn: 0
corn; [3]
  Plant response rating, Corn: 0
corn; [4]
  Plant response rating, Corn: 0
corn; [6]
  Corn plant response rating: 0
Woolly cupgrass; 62 g ai/ha, preemergence
  Plant response rating (0 = no effect, 100 = complete control), Cupgrass, Woolly: 0
Woolly cupgrass; [3]
  Plant response rating, Cupgrass, Woolly: 0
Woolly cupgrass; [4]
  Plant response rating, Cupgrass, Woolly: 25
Woolly cupgrass; [6]
  Cupgrass, Woolly plant response rating: 70
soybean; 62 g ai/ha, preemergence
  Plant response rating (0 = no effect, 100 = complete control), Soybean: 0
soybean; [3]
  Plant response rating, Soybean: 0
soybean; [4]
  Plant response rating, Soybean: 0
soybean; [6]
  Soybean plant response rating: 60
[1]; 62 g ai/ha
  Plant response rating (0 = no effect, 100 = complete control), Sunflower: 0
[1]; [7]
  Plant response rating, Sunflower: 0
[1]; [8]
  Plant response rating, Sunflower: 0
[1]
  Sunflower plant response rating: 0
velvetleaf; 62 g ai/ha, preemergence
  Plant response rating (0 = no effect, 100 = complete control), Velvetleaf: 0
velvetleaf; [3]
  Plant response rating, Velvetleaf: 0
velvetleaf; [4]
  Plant response rating, Velvetleaf: 100
velvetleaf; [6]
  Velvetleaf plant response rating: 100

## CCn1nc(C(C)(C)C)cc1C(=O)Nc1ccc(F)c(C(=O)NCCF)c1 [Compound 60]
Large crabgrass; [9]
  Plant response rating, Crabgrass, Large: 20
Large crabgrass; [10]
  Plant response rating, Crabgrass, Large: 55
Large crabgrass; [11]
  Crabgrass, Large plant response rating: 75
Large crabgrass; Preemergence, 2000 g ai/ha, 0 to 100 scale, 0 no effect, 100 complete control
  Crabgrass, Large plant response rating: 95
rice; [2]
  Plant response rating, Rice: 30
bermudagrass; [12]
  Plant response rating, Bermudagrass: 30
bermudagrass; 62 g ai/ha, preemergence
  Plant response rating (0 = no effect, 100 = complete control), Bermudagrass: 80
bermudagrass; [3]
  Plant response rating, Bermudagrass: 100
bermudagrass; [4]
  Plant response rating, Bermudagrass: 100
bermudagrass; Postemergence, 250 g ai/ha, scale 0 to 100
  Bermudagrass plant response rating: 5
bermudagrass; [13]
  Plant response rating, Bermudagrass: 0
bermudagrass; postemergence, 31 g ai/ha, scale 0 to 100
  Plant response rating, Bermudagrass: 0
bermudagrass; [14]
  Plant response rating, Bermudagrass: 0
corn; [12]
  Plant response rating, Corn: 0
corn; 62 g ai/ha, preemergence
  Plant response rating (0 = no effect, 100 = complete control), Corn: 0
corn; [3]
  Plant response rating, Corn: 0
corn; [4]
  Plant response rating, Corn: 0
corn; [15]
  Plant response rating, Corn: 0
corn; [13]
  Plant response rating, Corn: 0
corn; [14]
  Plant response rating, Corn: 0
Woolly cupgrass; [12]
  Plant response rating, Cupgrass, Woolly: 0
Woolly cupgrass; 62 g ai/ha, preemergence
  Plant response rating (0 = no effect, 100 = complete control), Cupgrass, Woolly: 0
Woolly cupgrass; [3]
  Plant response rating, Cupgrass, Woolly: 10
Woolly cupgrass; [4]
  Plant response rating, Cupgrass, Woolly: 70
Woolly cupgrass; [15]
  Plant response rating, Cupgrass, Woolly: 5
Woolly cupgrass; [13]
  Plant response rating, Cupgrass, Woolly: 5
Woolly cupgrass; [14]
  Plant response rating, Cupgrass, Woolly: 0
soybean; [12]
  Plant response rating, Soybean: 0
soybean; 62 g ai/ha, preemergence
  Plant response rating (0 = no effect, 100 = complete control), Soybean: 0
soybean; [3]
  Plant response rating, Soybean: 0
soybean; [4]
  Plant response rating, Soybean: 0
soybean; [15]
  Plant response rating, Soybean: 50
soybean; [13]
  Plant response rating, Soybean: 40
soybean; [14]
  Plant response rating, Soybean: 20
[1]; 31 g ai/ha, scale 0 to 100
  Plant response rating, Sunflower: 0
[1]; 62 g ai/ha
  Plant response rating (0 = no effect, 100 = complete control), Sunflower: 0
[1]; [7]
  Plant response rating, Sunflower: 0
[1]; [8]
  Plant response rating, Sunflower: 0
velvetleaf; [12]
  Plant response rating, Velvetleaf: 5
velvetleaf; [3]
  Plant response rating, Velvetleaf: 70
velvetleaf; [4]
  Plant response rating, Velvetleaf: 85
velvetleaf; [15]
  Plant response rating, Velvetleaf: 30
velvetleaf; [13]
  Plant response rating, Velvetleaf: 20
velvetleaf; [14]
  Plant response rating, Velvetleaf: 20

## CCN(CC)C(=O)c1cccc(NC(=O)c2cc(C(C)(C)C)nn2CC)n1 [Compound 145]
Large crabgrass; [9]
  Crabgrass, Large plant response rating: 30
Large crabgrass; [10]
  Plant response rating, Crabgrass, Large: 85
Large crabgrass; [11]
  Crabgrass, Large plant response rating: 70
Large crabgrass; [16]
  Crabgrass, Large plant response rating: 90
rice; [17]
  Plant response rating, Rice: 20
rice; [2]
  Plant response rating, Rice: 0
bermudagrass; 62 g ai/ha, preemergence
  Plant response rating (0 = no effect, 100 = complete control), Bermudagrass: 20
bermudagrass; [3]
  Plant response rating, Bermudagrass: 60
bermudagrass; [4]
  Plant response rating, Bermudagrass: 80
bermudagrass; [5]
  Bermudagrass plant response rating: 90
corn; 62 g ai/ha, preemergence
  Plant response rating (0 = no effect, 100 = complete control), Corn: 0
corn; [3]
  Plant response rating, Corn: 0
corn; [4]
  Plant response rating, Corn: 5
corn; [6]
  Corn plant response rating: 20
Woolly cupgrass; 62 g ai/ha, preemergence
  Plant response rating (0 = no effect, 100 = complete control), Cupgrass, Woolly: 0
Woolly cupgrass; [3]
  Plant response rating, Cupgrass, Woolly: 0
Woolly cupgrass; [4]
  Plant response rating, Cupgrass, Woolly: 0
Woolly cupgrass; [6]
  Cupgrass, Woolly plant response rating: 40
soybean; [3]
  Plant response rating, Soybean: 10
soybean; [6]
  Soybean plant response rating: 60
[1]; 62 g ai/ha
  Plant response rating (0 = no effect, 100 = complete control), Sunflower: 0
[1]; [7]
  Plant response rating, Sunflower: 0
[1]
  Sunflower plant response rating: 30
velvetleaf; [3]
  Plant response rating, Velvetleaf: 20
velvetleaf; [6]
  Velvetleaf plant response rating: 100

## CCNC(=O)c1cc(C)nc(NC(=O)c2cc(C(C)(C)C)nn2CC)c1 [Compound 149]
Large crabgrass; [9]
  Crabgrass, Large plant response rating: 40
Large crabgrass; [10]
  Plant response rating, Crabgrass, Large: 75
Large crabgrass; [11]
  Crabgrass, Large plant response rating: 95
Large crabgrass; [16]
  Crabgrass, Large plant response rating: 100
rice; [17]
  Plant response rating, Rice: 30
rice; [2]
  Plant response rating, Rice: 20
bermudagrass; [18]
  Plant response rating, Bermudagrass: 30
bermudagrass; [3]
  Plant response rating, Bermudagrass: 90
bermudagrass; [4]
  Plant response rating, Bermudagrass: 90
bermudagrass; [5]
  Bermudagrass plant response rating: 95
corn; [19]
  Plant response rating, Corn: 0
corn; [3]
  Plant response rating, Corn: 0
corn; [4]
  Plant response rating, Corn: 10
corn; [6]
  Corn plant response rating: 10
Woolly cupgrass; [19]
  Plant response rating, Cupgrass, Woolly: 0
Woolly cupgrass; [3]
  Plant response rating, Cupgrass, Woolly: 5
Woolly cupgrass; [4]
  Plant response rating, Cupgrass, Woolly: 20
Woolly cupgrass; [6]
  Cupgrass, Woolly plant response rating: 70
soybean; [19]
  Plant response rating, Soybean: 0
soybean; [3]
  Plant response rating, Soybean: 0
soybean; [6]
  Soybean plant response rating: 0
[1]; 62 g ai/ha, scale 0 to 100
  Plant response rating, Sunflower: 0
[1]; [7]
  Plant response rating, Sunflower: 0
[1]
  Sunflower plant response rating: 0
velvetleaf; [19]
  Plant response rating, Velvetleaf: 0
velvetleaf; [3]
  Plant response rating, Velvetleaf: 0
velvetleaf; [6]
  Velvetleaf plant response rating: 60

## C=CCNC(=O)c1cccc(NC(=O)c2sc(C(C)(C)C)nc2C)c1 [Compound 202]
Large crabgrass; [9]
  Crabgrass, Large plant response rating: 30
Large crabgrass; [10]
  Plant response rating, Crabgrass, Large: 65
Large crabgrass; [16]
  Crabgrass, Large plant response rating: 100
Large crabgrass; preemergence, 500 g ai/ha, visual injury, 0 to 100 scale (0 no effect, 100 complete control)
  Crabgrass, Large plant response rating: 85
rice; 125 g ai/ha, 0 = no effect, 100 = complete control
  Rice plant response rating (0 to 100 scale): 10
rice; [17]
  Plant response rating, Rice: 30
bermudagrass; [18]
  Plant response rating, Bermudagrass: 20
bermudagrass; [3]
  Plant response rating, Bermudagrass: 85
bermudagrass; [20]
  Plant response rating, Bermudagrass: 95
bermudagrass; [5]
  Bermudagrass plant response rating: 100
corn; [19]
  Plant response rating, Corn: 0
corn; [3]
  Plant response rating, Corn: 0
corn; [20]
  Plant response rating, Corn: 0
corn; [6]
  Corn plant response rating: 10
Woolly cupgrass; [19]
  Plant response rating, Cupgrass, Woolly: 0
Woolly cupgrass; [3]
  Plant response rating, Cupgrass, Woolly: 10
Woolly cupgrass; [20]
  Plant response rating, Cupgrass, Woolly: 20
Woolly cupgrass; [6]
  Cupgrass, Woolly plant response rating: 60
soybean; [19]
  Plant response rating, Soybean: 0
soybean; [3]
  Plant response rating, Soybean: 0
soybean; [20]
  Plant response rating, Soybean: 0
soybean; [6]
  Soybean plant response rating: 30
[1]; 62 g ai/ha, scale 0 to 100
  Plant response rating, Sunflower: 0
[1]; [7]
  Plant response rating, Sunflower: 0
[1]; 250 g ai/ha, scale 0-100
  Plant response rating, Sunflower: 10
[1]
  Sunflower plant response rating: 10
velvetleaf; [19]
  Plant response rating, Velvetleaf: 5
velvetleaf; [3]
  Plant response rating, Velvetleaf: 10
velvetleaf; [20]
  Plant response rating, Velvetleaf: 100
velvetleaf; [6]
  Velvetleaf plant response rating: 100
